Measurements taken from patent US10087192B2, “2-(het)aryl-substituted fused bicyclic heterocycle derivatives as pesticides” (BAYER CROPSCIENCE AKTIENGESELLSCHSAFT, priority 2015, dated 2018).

Key:
Format in all cases: in vivo
Ctenocephalides felis = Ctenocephalides felis oral test; conditions: 100 ppm in citrated cattle blood, after 2 days
Source text: Ctenocephalides felis—Oral Test Solvent: dimethyl sulphoxide […] Dilution with citrated cattle blood gives the desired concentration. About 20 unfed adult cat fleas (Ctenocephalides felis) are placed into a chamber which is closed at the top and bottom with gauze. A metal cylinder whose bottom end is closed with parafilm is placed onto the chamber. The cylinder contains the blood/active compound preparation, which can be imbibed by the fleas through the parafilm membrane.

Lucilia cuprina = Lucilia cuprina test; conditions: 100 ppm, after 2 days, L1 larvae
Experimental: (§1) Solvent: dimethyl sulphoxide
(§2) To produce a suitable preparation of active compound, 10 mg of active compound are mixed with 0.5 ml of dimethyl sulphoxide, and the concentrate is diluted with water to the desired concentration.
About 20 L1 larvae of the Australian sheep blowfly (Lucilia cuprina) are transferred into a test vessel containing minced horsemeat and the active compound preparation of the desired concentration.
After 2 days, the kill in % is determined. 100% means that all the larvae have been killed; 0% means that no larvae have been killed.

Myzus persicae = Myzus persicae spray test (Chinese cabbage leaf discs); conditions: 500 g/ha, after 6 days
Experimental: Myzus persicae—Spray Test Solvent: 78 parts by weight of acetone • • 1.5 parts by weight of dimethylformamide Emulsifier: alkylaryl polyglycol ether […] To produce further test concentrations, the preparation is diluted with emulsifier-containing water. Discs of Chinese cabbage leaves (Brassica pekinensis) infested by all stages of the green peach aphid (Myzus persicae) are sprayed with an active compound preparation of the desired concentration.

Phaedon cochleariae = Phaedon cochleariae spray test; conditions: after 7 days, larvae on Chinese cabbage leaf discs
Experimental: Phaedon cochleariae—Spray Test
Solvent: 78.0 parts by weight of acetone • • 1.5 parts by weight of dimethylformamide
Emulsifier: alkylaryl polyglycol ether
To produce a suitable preparation of active compound, 1 part by weight of active compound is dissolved using the stated parts by weight of solvent and made up with water containing an emulsifier concentration of 1000 ppm until the desired concentration is attained. To produce further test concentrations, the preparation is diluted with emulsifier-containing water.
After 7 days, the efficacy in % is determined. 100% means that all the beetle larvae have been killed; 0% means that no beetle larvae have been killed.

Spodoptera frugiperda = Spodoptera frugiperda spray test (maize leaf discs); conditions: after 7 days, caterpillars on maize leaf discs
Experimental: Spodoptera frugiperda—Spray Test Solvent: 78.0 parts by weight of acetone • • 1.5 parts by weight of dimethylformamide Emulsifier: alkylaryl polyglycol ether […] To produce further test concentrations, the preparation is diluted with emulsifier-containing water. Leaf discs of maize (Zea mays) are sprayed with an active compound preparation of the desired concentration and, after drying, populated with caterpillars of the armyworm (Spodoptera frugiperda).

Musca domestica = Musca domestica test; conditions: 100 ppm, after 2 days, adult houseflies
Experimental: as §1, §2
Vessels containing a sponge treated with sugar solution and the active compound preparation of the desired concentration are populated with 10 adult houseflies (Musca domestica).
After 2 days, the kill in % is determined. 100% means that all of the flies have been killed; 0% means that none of the flies have been killed.

Boophilus microplus = Boophilus microplus injection test; conditions: 20 μg/animal, assessed after 7 days
Experimental: Boophilus microplus—Injection Test
as §1
To produce a suitable preparation of active compound, 10 mg of active compound are mixed with 0.5 ml of solvent and the concentrate is diluted with solvent to the desired concentration.
1 μl of the active compound solution is injected into the abdomen of 5 engorged adult female cattle ticks (Boophilus microplus). The animals are transferred into dishes and kept in a climate-controlled room.
Efficacy is assessed after 7 days by laying of fertile eggs. Eggs which are not visibly fertile are stored in a climate-controlled cabinet until the larvae hatch after about 42 days. An efficacy of 100% means that none of the ticks has laid any fertile eggs; 0% means that all the eggs are fertile.

CCS(=O)(=O)c1ccc(-n2ccc(SC(F)(F)F)c2)nc1-c1nc2cc(C(F)(F)F)ncc2n1C [Example 2]
efficacy (kill) (Ctenocephalides felis): 100%
efficacy (kill) (Lucilia cuprina): 100%
efficacy (Myzus persicae): 90%
efficacy (Phaedon cochleariae; 500 g/ha): 100%

CCS(=O)(=O)c1ccc(-n2cc(S(C)(=O)=O)cn2)nc1-c1nc2cc(C(F)(F)F)ncc2n1C [Example 3]
efficacy (kill) (Ctenocephalides felis): 100%
efficacy (kill) (Lucilia cuprina): 100%
efficacy (Myzus persicae): 90%
efficacy (Phaedon cochleariae; 500 g/ha): 100%

CCS(=O)(=O)c1ccc(-n2cc(C(=O)NC)cn2)nc1-c1nc2cc(C(F)(F)F)ncc2n1C [Example 4]
efficacy (kill) (Ctenocephalides felis): 100%
efficacy (kill) (Lucilia cuprina): 100%
efficacy (Myzus persicae): 90%
efficacy (Phaedon cochleariae; 500 g/ha): 100%

CCS(=O)(=O)c1ccc(-n2cc(Cl)cn2)nc1-c1nc2cc(C(F)(F)F)ncc2n1C [Example 6]
efficacy (kill) (Ctenocephalides felis): 95%
efficacy (Spodoptera frugiperda; 100 g/ha): 100%

CCS(=O)(=O)c1ccc(-n2ccc(Cl)n2)nc1-c1nc2cc(C(F)(F)F)ncc2n1C [Example 9]
efficacy (Spodoptera frugiperda; 100 g/ha): 83%
efficacy (Phaedon cochleariae; 500 g/ha): 100%

CCS(=O)(=O)c1ccc(-n2ccc(COC)n2)nc1-c1nc2cc(C(F)(F)F)ncc2n1C [Example 10]
efficacy (kill) (Lucilia cuprina): 100%
efficacy (Myzus persicae): 90%

CCS(=O)(=O)c1ccc(-n2ccc(C(=O)NC)n2)nc1-c1nc2cc(C(F)(F)F)ncc2n1C [Example 12]
efficacy (Myzus persicae): 90%

CCS(=O)(=O)c1ccc(-n2cc(C3CC3)cn2)nc1-c1nc2cc(C(F)(F)F)ncc2n1C [Example 13]
efficacy (kill) (Ctenocephalides felis): 80%
efficacy (kill) (Lucilia cuprina): 100%
efficacy (Spodoptera frugiperda; 500 g/ha): 100%
efficacy (kill) (Musca domestica): 100%
efficacy (Phaedon cochleariae; 500 g/ha): 100%

CCS(=O)(=O)c1ccc(-n2cnc(SC)n2)nc1-c1nc2cc(C(F)(F)F)ncc2n1C [Example 15]
efficacy (Spodoptera frugiperda; 500 g/ha): 83%
efficacy (Myzus persicae): 90%
efficacy (Phaedon cochleariae; 500 g/ha): 100%

CCS(=O)(=O)c1ccc(-n2cc(SC)cn2)nc1-c1nc2cc(C(F)(F)F)ncc2n1C [Example 16]
efficacy (Spodoptera frugiperda; 500 g/ha): 100%
efficacy (Myzus persicae): 100%
efficacy (Phaedon cochleariae; 500 g/ha): 100%

CCS(=O)(=O)c1ccc(-n2cc(C#N)cn2)nc1-c1nc2cc(C(F)(F)F)ncc2n1C [Example 19]
efficacy (kill) (Ctenocephalides felis): 100%
efficacy (kill) (Lucilia cuprina): 100%
efficacy (Spodoptera frugiperda; 500 g/ha): 100%
efficacy (kill) (Musca domestica): 100%
efficacy (Myzus persicae): 90%
efficacy (Phaedon cochleariae; 500 g/ha): 100%

CCS(=O)(=O)c1ccc(-n2cccn2)nc1-c1nc2cc(C(F)(F)F)ncc2n1C [Example 21]
efficacy (Spodoptera frugiperda; 100 g/ha): 100%
efficacy (Phaedon cochleariae; 20 g/ha): 83%

CCS(=O)(=O)c1ccc(-n2ccc(NC(C)=O)n2)nc1-c1nc2cc(C(F)(F)F)ncc2n1C [Example 23]
efficacy (kill) (Lucilia cuprina): 100%
efficacy (Myzus persicae): 90%
efficacy (Phaedon cochleariae; 500 g/ha): 100%

CCS(=O)(=O)c1ccc(-n2ccc(C(F)(F)F)n2)nc1-c1nc2cc(C(F)(F)F)ncc2n1C [Example 25]
efficacy (kill) (Ctenocephalides felis): 100%
efficacy (kill) (Lucilia cuprina): 100%
efficacy (Spodoptera frugiperda; 500 g/ha): 100%
efficacy (laying of fertile eggs) (Boophilus microplus): 80%
efficacy (Phaedon cochleariae; 500 g/ha): 100%

CCS(=O)(=O)c1ccc(-n2cnc(C(F)(F)F)c2)nc1-c1nc2cc(C(F)(F)F)ncc2n1C [Example 27]
efficacy (kill) (Ctenocephalides felis): 95%
efficacy (Phaedon cochleariae; 500 g/ha): 100%

CCS(=O)(=O)c1ccc(-n2cc(F)cn2)nc1-c1nc2cc(C(F)(F)F)ncc2n1C [Example 28]
efficacy (kill) (Ctenocephalides felis): 98%
efficacy (kill) (Lucilia cuprina): 100%
efficacy (Spodoptera frugiperda; 100 g/ha): 100%
efficacy (Phaedon cochleariae; 100 g/ha): 100%

CCS(=O)(=O)c1ccc(-n2ccc(SC)n2)nc1-c1nc2cc(C(F)(F)F)ncc2n1C [Example 29]
efficacy (Myzus persicae): 90%
efficacy (Phaedon cochleariae; 500 g/ha): 100%

CCS(=O)(=O)c1ccc(-n2ncc(C(F)(F)F)n2)nc1-c1nc2cc(C(F)(F)F)ncc2n1C [Example 30]
efficacy (kill) (Lucilia cuprina): 100%
efficacy (Spodoptera frugiperda; 500 g/ha): 100%
efficacy (laying of fertile eggs) (Boophilus microplus): 95%
efficacy (Myzus persicae): 90%
efficacy (Phaedon cochleariae; 500 g/ha): 100%

CCS(=O)(=O)c1ccc(-n2ccc(S(C)(=O)=O)n2)nc1-c1nc2cc(C(F)(F)F)ncc2n1C [Example 35]
efficacy (kill) (Ctenocephalides felis): 100%
efficacy (kill) (Lucilia cuprina): 100%
efficacy (Myzus persicae): 90%
efficacy (Phaedon cochleariae; 500 g/ha): 100%

CCS(=O)(=O)c1ccc(-n2cc(CSC)cn2)nc1-c1nc2cc(C(F)(F)F)ncc2n1C [Example 38]
efficacy (Phaedon cochleariae; 500 g/ha): 100%
